Experimental data taken from patent publication US8815892B2, “P2X7R antagonists and their use” (Affectis Pharmaceuticals AG, priority 2008, dated 2014).

Columns and labels:
EAE in SJL mice = assay: Relapsing-remitting experimental autoimmune encephalomyelitis (EAE), PLP139-151/CFA model of multiple sclerosis; assay type: in vivo, mouse; settings: SJL female mice
Experimental: The therapeutic effects of the compounds of the present invention were assessed in a mouse model of relapsing-remitting multiple sclerosis MS. The relapsing-remitting experimental autoimmune encephalomyelitis (EAE) which develops in SJL mice after immunization with the Proteolipid Protein PLP139-151 and Complete Freund's Adjuvant (CFA) is the mouse model which most closely resembles human remitting/relapsing MS (see Webb et al (2004) J Neuroimmunol 153:108-121). In this example, a representative compound of the invention, 4-chloro-N-(cycloheptylmethyl)-1-(2-hydroxyethyl)-1H-indole-3-carboxamide (Example 54), was tested.
EAE was induced in SJL female mice (Jackson Labs), using a PLP139-151/CFA Emulsion (Hooke Laboratories, Lawrence Mass.) according to the manufacturer's recommended protocol. Mice were injected subcutaneously at four sites (0.05 mL at each site) in the back with the emulsion. Two sites of injection were in the area of the upper back, approximately 1 cm caudal of the neck line. The other two sites were in the area of the lower back, approximately 2 cm cranial of the base of the tail. Individual animals were then examined daily for clinical signs of neurological deficits scored on a 0 to 5 scale as follows: 0, no abnormality; 0.5, stiff tail; 1, limp tail; 1.5, limp tail with inability to right; 2, paralysis of one limb; 2.5, paralysis of one limb and weakness of one other limb; 3, complete paralysis of both hind limbs; 4, moribund; 5, death. Daily scoring for signs of EAE started on Day 7 after immunization with the first symptoms observed between Days 11 and 15 after immunization. Treatment for each animal began on the second day that the animal developed EAE symptoms. […] The effect of treatment on development of EAE relapses was evaluated by comparing incidence and severity of relapses, and the end scores between the compound-treated groups and the vehicle group. Incidence of relapse were compared using two-tailed Fisher's exact test and the end scores between vehicle and treatment groups were calculated using Wilcoxon's non-parametric test. […]

[1] = system: LPA-induced neuropathic pain in C57/Bl6 mice; assay: Lysophosphatidic acid (LPA)-induced neuropathy, mechanical hyperalgesia (digital Randall-Selitto); assay type: in vivo, mouse; settings: 1 hour after dosing
Experimental: The therapeutic effects of the compounds of the present invention were assessed in the lysophosphatidic acid (LPA)-induced neuropathy in mice. This model is commonly used to evaluate the potential analgesic activity of compounds designed to treat neuropathic pain in humans (Inoue et al. (2004) Nat Med 10: 712-718; Inoue et al. (2008). Mol Pain 4(6) doi:10.1186/1744-8069-4-6). In this example, a representative compound of the invention, 4-chloro-N-(cycloheptylmethyl)-1-(2-hydroxyethyl)-1H-indole-3-carboxamide (Example 54), was tested.
Neuropathic pain was induced in male, C57/Bl6 mice (Harlan) by an intrathecal injection of 1 nmol LPA (prepared in saline; ENZO) in a 5 μL volume into the spinal cord. Pre-LPA injection, post-LPA injection and post-treatment values for mechanical hyperalgesia were evaluated using a digital Randall-Selitto device (dRS; IITC Life Sciences). Paw compression threshold was measured once at each time point for the left and right paws. […] The readings from the left and right paws were averaged at each time point. […]
Vehicle (0.5% carboxymethylcellulose (CMC)) or between 125-500 mg/kg of a compound of the present invention (dissolved in 0.5% CMC) were administered via oral gavage two days after LPA injection. […] If a significant main effect was detected, Dunnetts' post hoc test was used to compare treatment to vehicle treated animals. […]

O=C(NCC1CCCCCC1)c1cn(CCO)c2cccc(Cl)c12 [Example 54, 4-chloro-N-(cycloheptylmethyl)-1-(2-hydroxyethyl)-1H-indole-3-carboxamide]
treated animals that developed relapses (EAE in SJL mice; 125 to 500 mg/kg twice daily oral gavage from second day of EAE symptoms, vehicle 50.0%, p=0.0038): 6%
average EAE score on Day 40 (end of the study) (EAE in SJL mice; 125 to 500 mg/kg twice daily oral gavage, 0 to 5 scale, vehicle 1.34, p=0.0021): 0.50
day of relapse (the one mouse of the group that relapsed) (EAE in SJL mice; 125 to 500 mg/kg twice daily oral gavage, vehicle mean day of relapse 22, delay p=0.0039): 40 days
mean paw compression thresholds compared to pre-treatment baseline ([1]; 125-500 mg/kg oral gavage two days after LPA injection, p<0.05): significantly increased mean paw compression thresholds

NCC1(CC(=O)O)CCCCC1 [gabapentin, reference compound]
mechanical hyperalgesia (paw compression thresholds) compared to pre-treatment baseline ([1]; 100 mg/kg intraperitoneal two days after LPA injection): slight decrease in mechanical hyperalgesia
